According to patent publication US6353019B1, “Macrocyclic lactones, compositions, and methods of use” (United States of America as represented by the Department …, priority 1997, dated 2002):

Tests used:
NCI-H522 = assay: NCI 60 cell-line screen, NCI-H522 (Lung); type: cell-based, human; conditions: averaged, quadruplicate testing, 48 h, SRB
Experimental: (§1) The NCI screen consists of a panel of 60 different human tumor cell lines against which compounds are tested over a defined range of concentrations to determine the relative degree of growth inhibition or cytotoxicity against each cell line. The design and operation of the screen is such that for each compound tested, both the absolute and relative sensitivities of individual cell lines comprising the screen are sufficiently reproducible that a characteristic profile or “fingerprint” of cellular response is generated. Compounds which are active in the NCI screen show pronounced differential tumor growth-inhibitory and/or cytotoxic effects to the diverse cell lines comprising the 60 cell-line panel. The degree of differential response between the most and least sensitive lines typically may be relatively small (e.g., 2- to 10-fold), or occasionally as great as 3-4 orders of magnitude. […]
(§2) In the screening assay, each agent is tested over a broad concentration range against every cell line in the panel. […] Test compounds are evaluated at five 10-fold dilutions. […] Optical densities are measured on automated plate readers, followed by computerized data acquisition, processing, storage, and availability for display and analysis. […]

MCF-7-ADR-RES = assay: NCI 60 cell-line screen, MCF-7-ADR-RES (Breast); type: cell-based, human; conditions: averaged, quadruplicate testing, 48 h, SRB
Experimental: as §1, §2

MDA-N = assay: NCI 60 cell-line screen, MDA-N (Breast); type: cell-based, human; conditions: averaged, quadruplicate testing, 48 h, SRB
Experimental: as §1, §2

UO-31 = assay: NCI 60 cell-line screen, UO-31 (Kidney); type: cell-based, human; conditions: averaged, quadruplicate testing, 48 h, SRB
Experimental: as §1, §2

KM12 = assay: NCI 60 cell-line screen, KM12 (Colon); type: cell-based, human; conditions: averaged, quadruplicate testing, 48 h, SRB
Experimental: as §1, §2

A498 = assay: NCI 60 cell-line screen, A498 (Kidney); type: cell-based, human; conditions: averaged, quadruplicate testing, 48 h, SRB
Experimental: as §1, §2

U251 = assay: NCI 60 cell-line screen, U251 (Brain); type: cell-based, human; conditions: averaged, quadruplicate testing, 48 h, SRB
Experimental: as §1, §2

SN-12C = assay: NCI 60 cell-line screen, SN-12C (Kidney); type: cell-based, human; conditions: averaged, quadruplicate testing, 48 h, SRB
Experimental: as §1, §2

IGROVI = assay: NCI 60 cell-line screen, IGROVI (Ovary); type: cell-based, human; conditions: averaged, quadruplicate testing, 48 h, SRB
Experimental: as §1, §2

SNB-19 = assay: NCI 60 cell-line screen, SNB-19 (Brain); type: cell-based, human; conditions: averaged, quadruplicate testing, 48 h, SRB
Experimental: as §1, §2

SF-539 = assay: NCI 60 cell-line screen, SF-539 (Brain); type: cell-based, human; conditions: averaged, quadruplicate testing, 48 h, SRB
Experimental: as §1, §2

HCC-2998 = assay: NCI 60 cell-line screen, HCC-2998 (Colon); type: cell-based, human; conditions: averaged, quadruplicate testing, 48 h, SRB
Experimental: as §1, §2

RXF-393 = assay: NCI 60 cell-line screen, RXF-393 (Kidney); type: cell-based, human; conditions: averaged, quadruplicate testing, 48 h, SRB
Experimental: as §1, §2

ACHN = assay: NCI 60 cell-line screen, ACHN (Kidney); type: cell-based, human; conditions: averaged, quadruplicate testing, 48 h, SRB
Experimental: as §1, §2

RPMI-8226 = assay: NCI 60 cell-line screen, RPMI-8226 (Leukemia); type: cell-based, human; conditions: averaged, quadruplicate testing, 48 h, SRB
Experimental: as §1, §2

K-562 = assay: NCI 60 cell-line screen, K-562 (Leukemia); type: cell-based, human; conditions: averaged, quadruplicate testing, 48 h, SRB
Experimental: as §1, §2

HT29 = assay: NCI 60 cell-line screen, HT29 (Colon); type: cell-based, human; conditions: averaged, quadruplicate testing, 48 h, SRB
Experimental: as §1, §2

SK-MEL-28 = assay: NCI 60 cell-line screen, SK-MEL-28 (Melanoma); type: cell-based, human; conditions: averaged, quadruplicate testing, 48 h, SRB
Experimental: as §1, §2

CAKI-1 = assay: NCI 60 cell-line screen, CAKI-1 (Kidney); type: cell-based, human; conditions: averaged, quadruplicate testing, 48 h, SRB
Experimental: as §1, §2

COLO 205 = assay: NCI 60 cell-line screen, COLO 205 (Colon); type: cell-based, human; conditions: averaged, quadruplicate testing, 48 h, SRB
Experimental: as §1, §2

DU-145 = assay: NCI 60 cell-line screen, DU-145 (Prostate); type: cell-based, human; conditions: averaged, quadruplicate testing, 48 h, SRB
Experimental: as §1, §2

OVCAR-3 = assay: NCI 60 cell-line screen, OVCAR-3 (Ovary); type: cell-based, human; conditions: averaged, quadruplicate testing, 48 h, SRB
Experimental: as §1, §2

HS-578T = assay: NCI 60 cell-line screen, HS-578T (Breast); type: cell-based, human; conditions: averaged, quadruplicate testing, 48 h, SRB
Experimental: as §1, §2

SW-620 = assay: NCI 60 cell-line screen, SW-620 (Colon); type: cell-based, human; conditions: averaged, quadruplicate testing, 48 h, SRB
Experimental: as §1, §2

NCI-H460 = assay: NCI 60 cell-line screen, NCI-H460 (Lung); type: cell-based, human; conditions: averaged, quadruplicate testing, 48 h, SRB
Experimental: as §1, §2

MDA-MB-231/ATCC = assay: NCI 60 cell-line screen, MDA-MB-231/ATCC (Breast); type: cell-based, human; conditions: averaged, quadruplicate testing, 48 h, SRB
Experimental: as §1, §2

[1] = system: panel of 60 different human tumor cell lines; assay: NCI 60 cell-line human tumor screen, whole panel; type: cell-based
Experimental: as §1, §2
Three additional numbers are printed at the base of each of the three respective mean-graphs. […] The MG-MID is the calculated mean panel GI50, TGI, or LC50. […]

SR = assay: NCI 60 cell-line screen, SR (Leukemia); type: cell-based, human; conditions: averaged, quadruplicate testing, 48 h, SRB
Experimental: as §1, §2

EKVX = assay: NCI 60 cell-line screen, EKVX (Lung); type: cell-based, human; conditions: averaged, quadruplicate testing, 48 h, SRB
Experimental: as §1, §2

[2] = Stability of compounds and extracts in solvents and media; type: physicochemical
Excerpt: Therefore, all subsequent attempts at isolation avoided the use of chloroform or exposure of samples to CDCl3, and no further problems with decomposition or loss of bioactivity were encountered. Moreover, there was no indication of any instability of the pure isolated compounds in any of the other common organic solvents employed, nor in aqueous or biological media. Therefore, a typical isolation and purification of the salicylihalamides from the selected crude extract is as follows.

For salicylihalamide A, the “negative log10 GI50” value (NCI-H522) was 7.26, the “negative log10 GI50” value (MCF-7-ADR-RES) was 8.07 and the “negative log10 GI50” value (MDA-N) was 8.00. For the same substance, the “negative log10 GI50” value (UO-31) was 8.31, the “negative log10 GI50” value (KM12) was 8.30 and the “negative log10 GI50” value (A498) was 6.55. The “negative log10 GI50” value (U251) was 7.57, the “negative log10 GI50” value (SN-12C) was 7.77 and the “negative log10 GI50” value (IGROVI) was 7.89. The “negative log10 GI50” value (SNB-19) was 6.47, the “negative log10 GI50” value (SF-539) was 7.89 and the “negative log10 GI50” value (HCC-2998) was 6.74. The “negative log10 GI50” value (RXF-393) was 9.07, the “negative log10 GI50” value (ACHN) was 8.01 and the “negative log10 GI50” value (RPMI-8226) was 7.89. For the same substance, the “negative log10 GI50” value (K-562) was 8.41, the “negative log10 GI50” value (HT29) was 8.54 and the “negative log10 GI50” value (SK-MEL-28) was 7.00. The “negative log10 GI50” value (CAKI-1) was 8.96, the “negative log10 GI50” value (COLO 205) was 8.07 and the “negative log10 GI50” value (DU-145) was 8.26. The “negative log10 GI50” value (OVCAR-3) was 7.03, the “negative log10 GI50” value (HS-578T) was 5.85 and the “negative log10 GI50” value (SW-620) was 7.54. For the same substance, the “negative log10 GI50” value (NCI-H460) was 9.01, the “negative log10 GI50” value (MDA-MB-231/ATCC) was 6.92 and the GI50 ([1]; mean over the NCI 60 cell-line panel, read-out: mean panel GI50 concentration) was roughly 15 nM. The “range of differential sensitivity among the 60 cell-lines” value ([1]; most vs least sensitive lines of the NCI panel) was “greater than or equal to 10^3”, the “negative log10 GI50” value (SR) was 8.44 and the “negative log10 GI50” value (EKVX) was 7.52. The “stability in deuterated chloroform (CDCl3)” value [2] was “sensitivity”.
